This assay relates to CEM cells HIV-1 protection, formazan growth assay. The experiment in a line: NCI AIDS Antiviral Assay. Conditions: for IC50: measured here: growth of uninfected CEM cells. How it is done:
The ability of compounds to protect human CEM cells from HIV-1 infection is measured as a screen for new compounds capable of inhibiting the HIV virus. Five concentrations of drug were tested on uninfected and infected cells and cell growth was measured using a soluble formazan assay. […] Compounds that provided at least 50% protection were retested. Compounds that provided at least 50% protection on retest were listed as moderately active. Compounds that reproducibly provided 100% protection were listed as confirmed active. […] Note that the inability to provide protection could be due to toxicity.

Activity calls are given as the source filed them.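 Rule for the calls: active = compounds giving half or more protection of infected cells from virus-caused growth loss, again on retest; inactive = the rest.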

For orientation: EC50 means the concentration that produces a half-maximal response. In general, IC50 refers to the concentration that inhibits the measured activity by half. Higher therefore signals lower potency. With `COc1c(Cl)cc(Cc2cc(Cl)c(OC)c([N+](=O)[O-])c2)cc1[N+](=O)[O-]`, the EC50 is above 200 µM and the concentration for half-maximal inhibition (IC50) was above 200 µM.
Take `C=CCC(CCC(C)=O)(C(=O)OCC)C(=O)OCC`: the EC50 is above 200 µM and the concentration for half-maximal inhibition (IC50) was above 200 µM.
As for `CCn1ccc(=O)nc1`, the EC50 is above 200 µM and the half-inhibitory concentration (IC50) was above 200 µM.
For the compound `COc1ccc(OC)c(-n2nnc3ccccc3c2=O)c1`, the EC50 is above 302 µM and the IC50 was 174 µM.
Take `NS(=O)(=O)c1ccc(NC(=S)/N=C/c2c(O)c3ccccc3[nH]c2=O)cc1`: the EC50 was above 200 µM and the IC50 is above 200 µM.
Take `Cc1ccc(C(=O)Nc2ccc(S(=O)(=O)O)c3cc(S(=O)(=O)O)cc(S(=O)(=O)O)c23)cc1NC(=S)Nc1cc(C(=O)Nc2ccc(S(=O)(=O)O)c3cc(S(=O)(=O)O)cc(S(=O)(=O)O)c23)ccc1C`: the EC50 was 132 µM and the IC50 was determined as 204 µM.
For the compound `C[C@]12CC[C@@H]3c4cc(OCC(F)(F)F)c(O)cc4C(=O)C[C@H]3[C@@H]1CC[C@@H]2O`, the EC50 was above 200 µM and the IC50 was 3.02 µM.
Take `O=C1c2ccccc2C2(c3ccc(Cl)cc3)NCc3ccccc3CN12` (configuration not stated): the EC50 is above 200 µM and the IC50 turned out to be 12.9 µM.
Taken in the same sequence, the figures for `CCC1(C)C=Cc2c(cc(OC)c3c(=O)c4ccccc4n(C)c23)O1` (configuration not stated) were above 200 µM and 24.5 µM.
`COc1ccc(OCC(=O)O)c(C(=O)CCC(=O)O)c1`: the result was inactive.
Turning to `CCOC(=O)C1=C(C)NC(=O)NC1c1ccc(OC)cc1OC` (configuration not stated), the EC50 was above 30.9 µM and the IC50 is above 30.9 µM.
In the case of `S=c1[nH]nc(-c2ccccc2)n1/N=C\c1ccc(-c2ccc(Cl)cc2)o1`, the EC50 was above 5.25 µM and the concentration for half-maximal inhibition (IC50) is above 5.25 µM.
With `COc1ccccc1NC(=O)C(=O)C(C#N)CC(C)(C)C=O` (configuration not stated), the EC50 is above 85.1 µM and the IC50 was above 85.1 µM.
On to `Clc1cccc(C2SCc3nc4ccccc4n32)c1` (configuration not stated), for which the result was inactive.
Consider `CC(C)(C)c1cc(C(c2ccccc2)c2ccccc2)cc(C(C)(C)C)c1O`, for which the EC50 is above 60.3 µM and the half-maximal inhibitory concentration (IC50) came to 33.1 µM.
The matching figures for `CC(=O)NC(CSSCC(NC(C)=O)C(=O)O)C(=O)O` (configuration not stated): above 776 µM and above 776 µM.
For `C[Si](C)(C)C#C[I+]c1ccccc1`, the result was inactive.
On to `CCN(CC)CCN.O=c1cccccc1[O-].O=c1cccccc1[O-].[Co+3].[O-][Cl+3]([O-])([O-])[O-]`, for which the EC50 was above 200 µM and the IC50 turned out to be 2.24 µM.
On to `O=S(=O)([O-])[O-].O=c1[nH]cnc2[nH]ncc12.O=c1[nH]cnc2[nH]ncc12.[Zn+2]`, for which the EC50 is above 209 µM and the concentration for half-maximal inhibition (IC50) turned out to be 155 µM.
The matching figures for `COc1ccc(NC(=O)/C(N=O)=C(/C)O)cc1`: above 1050 µM and above 1050 µM.
Turning to `CC1(C)CNC(=O)C2(C=NC(C)(C)CNC(=O)C3(C=N1)CCCO3)CCCO2` (configuration not stated), the EC50 is above 25.1 µM and the IC50 is above 25.1 µM.
As for `CNn1c(-c2ccc(C)cc2)n[nH]c1=O`, the EC50 is 49 µM and the concentration for half-maximal inhibition (IC50) was 56.2 µM.
With `Cn1cc(N)cc1C(=O)Nc1cc(C(=O)Nc2ccc3cc(S(=O)(=O)O)cc(S(=O)(=O)O)c3c2)n(C)n1`, the EC50 was 18.2 µM and the half-inhibitory concentration (IC50) is above 100 µM.
On to `COc1cc2c(cc1O)[C@H](C)C(c1ccc(Cl)cc1)O2` (some centres not stated), for which the EC50 is above 64.6 µM and the 50% inhibitory concentration (IC50) was 33.1 µM.
Take `O=c1[nH]cnc2c1nnn2CCCn1nnc2c(=O)[nH]cnc21`: the EC50 is above 200 µM and the IC50 is above 200 µM.
For `O=[N+]([O-])c1cc2ccc(O)cc2c2ccccc12`, the EC50 was 51.3 µM and the concentration for half-maximal inhibition (IC50) was 61.7 µM.
In the case of `Cn1c(=O)c2c(ncn2CCCCOc2ccc3c(c2)[n+]([O-])nc(N)[n+]3[O-])n(C)c1=O`, the EC50 was above 200 µM and the IC50 stood at 23.4 µM.
Consider `O=C(NC1CCCCC1)NC12CC3CC(CC(F)(C3)C1)C2`, for which the EC50 is above 45.7 µM and the IC50 was above 45.7 µM.
For `O=C1C=C(NCCc2ccccc2)c2ccccc2C1=O`, the EC50 was above 36.3 µM and the IC50 came to 25.1 µM.
The matching figures for `c1ccc(-c2nc3ccccc3nc2-c2ccccn2)nc1`: above 200 µM and above 200 µM.
Turning to `CON[C@@H]1C[C@H](n2cc(C)c(=O)[nH]c2=O)O[C@@H]1CO[Si](C)(C)C(C)(C)C`, the EC50 was above 200 µM and the IC50 was 107 µM.
Regarding `C=C(C)CN1C(=O)C(C)S/C1=N/N=C1/SCC(=O)N1C` (configuration not stated), the EC50 is above 42.7 µM and the IC50 was above 42.7 µM.
In the case of `CCn1c(=O)c2ncnnc2n(CC)c1=O`, the EC50 is above 200 µM and the IC50 was above 200 µM.
Turning to `O=CC(O)C(O)C(O)C1CNC(=S)O1` (configuration not stated), the EC50 was above 200 µM and the IC50 is above 200 µM.
As for `C[C@@]12c3ccc4c(c3C(=O)c3occ(c31)[C@@H](O)C[C@H]2O)CCC4=O`, the EC50 was above 200 µM and the IC50 worked out at 17.4 µM.
Regarding `Cc1nc2c(nc1C)C(=O)C(N)=CC2=O`, the outcome was inactive.
As for `C(=Nc1ccc(SSc2ccc(N=C=C(c3ccccc3)c3ccccc3)cc2)cc1)=C(c1ccccc1)c1ccccc1`, the EC50 was above 200 µM and the IC50 was above 200 µM.
As to `CC1CCC(C(C)C)/C(=N/NC(=O)CC#N)C1` (configuration not stated), the EC50 is above 200 µM and the IC50 is above 200 µM.
For `Cc1cccc(C)c1NC(=O)C(=O)C(C(=O)c1ccccc1-c1ccccc1)C1OC(=O)c2ccccc21` (configuration not stated), the EC50 was above 135 µM and the IC50 came to 24.5 µM.
As to `COC(=O)[C@@H]1CSC(=S)N1C(=O)C[C@H]1CC=CC[C@H]1CC(=O)Sc1ccccc1`, the outcome was inactive.
Turning to `Cc1n[n+](CC(=O)c2ccccc2)c2sc(N)nn12`, the EC50 is above 200 µM and the IC50 amounted to 132 µM.
Regarding `CCOC(=O)C[N+]1(C)CCC(O)CC1` (configuration not stated), the EC50 was above 200 µM and the IC50 was above 200 µM.
With `COc1cc(C2(C#N)CCN(C)CC2)cc(OC)c1OC`, the EC50 was above 871 µM and the IC50 came to 437 µM.
On to `COc1ccc(C2(c3ccc(OC)cc3)N=NC3(C)CC32)cc1` (configuration not stated), for which the EC50 was above 91.2 µM and the concentration for half-maximal inhibition (IC50) is 89.1 µM.
The matching figures for `COc1ccc(NC(=O)CC/C(CC(=O)c2ccco2)=N/Nc2ccc([N+](=O)[O-])cc2[N+](=O)[O-])cc1`: above 52.5 µM and 30.9 µM.
As for `Cc1cc(S(=O)(=O)NC(=NCC(=O)NN)NN)c(S)cc1Cl`, the EC50 is above 200 µM and the IC50 amounted to 34.7 µM.
Take `[B-]1n2ccc[n+]2[B-]n2ccc[n+]21`: the EC50 is above 200 µM and the half-maximal inhibitory concentration (IC50) was above 200 µM.
On to `C[C@]12CC[C@H]3[C@@H](CC=C4C[C@@H](O)CC[C@@]43C)[C@@H]1CC[C@@H]2c1cnc[nH]1`, for which the EC50 was above 200 µM and the half-maximal inhibitory concentration (IC50) stood at 117 µM.
In the case of `CCN(CC)CCNc1c(OC)c(OC)cc2nccnc12`, the EC50 was above 200 µM and the IC50 stood at 64.6 µM.
For `CCC(CO)COC(=O)/C=C/C(=O)OCC(CC)CO` (configuration not stated), the outcome was inactive.
As to `Cc1ccc(S(=O)(=O)Nn2c3c(cc(C#N)c2=O)CCC3)cc1`, the EC50 is above 200 µM and the IC50 was above 200 µM.
On to `CCOCC(=O)N[C@H]1CCc2cc(OC)c(OC)c(OC)c2-c2ccc(OC)c(=O)cc21`, for which the EC50 is above 2 µM and the IC50 stood at 0.00347 µM.
With `CCCCc1nc(C)oc1C(C)C`, the EC50 was above 200 µM and the IC50 was above 200 µM.
In the case of `COc1ccc(C2SC(N)=Nc3c2c(C)nn3C(=O)c2ccc(Cl)cc2)cc1OC` (configuration not stated), the EC50 was above 200 µM and the IC50 was above 200 µM.
In the case of `CC(CCc1ccc2c(c1)c(=N)c1ccc(N)cc1n2O)CC(C)(C)C` (configuration not stated), the result was inactive.
As for `O=[N+]([O-])c1ccc(-c2ccc(C3=Nn4c(CNc5ccccc5Cl)nnc4SC3)o2)cc1`, the EC50 is above 11.2 µM and the IC50 was above 11.2 µM.
Turning to `CCN(CC)C(=O)Cn1c(C)cc2ccccc21`, the EC50 was above 200 µM and the concentration for half-maximal inhibition (IC50) is above 200 µM.
As to `N#Cc1sc2c(c1OC(=O)c1ccccc1)c(=O)n(-c1ccccc1)c(=S)n2-c1ccccc1`, the EC50 was above 200 µM and the concentration for half-maximal inhibition (IC50) was determined as 2.34 µM.
For the compound `S=c1sc2c(s1)SCCS2`, the EC50 was above 200 µM and the concentration for half-maximal inhibition (IC50) was found to be 155 µM.
Consider `COC(=O)C12OC(C)(C(CC(=O)OC(C)(C)C)C1=O)C1C(=O)N(c3ccccc3)C(=O)C12` (configuration not stated), for which the EC50 is above 200 µM and the half-inhibitory concentration (IC50) was above 200 µM.
In the case of `CC(=O)NNc1nc(C)c(C(/C=C/c2ccc([N+](=O)[O-])cc2)=N/N)s1`, the EC50 was above 69.2 µM and the IC50 is above 69.2 µM.
`O=P1(OCC(F)(F)C(F)F)Oc2ccccc2O1`: the EC50 was above 41.7 µM and the IC50 was 3.24 µM.
Regarding `Cc1nn(C(=O)c2ccccc2O)c2c1C(c1ccco1)SC(N)=N2` (configuration not stated), the EC50 is above 20 µM and the IC50 was found to be 1.23 µM.
Regarding `COc1cc(C2SCC(=O)N2c2ccc(Oc3ccc(Cl)cc3)c(Cl)c2)cc(OC)c1OC` (configuration not stated), the EC50 was above 200 µM and the concentration for half-maximal inhibition (IC50) was 20 µM.
As for `O=C1SCC(O)=C1/C=N/Nc1nc2ccccc2o1`, the EC50 was above 50.1 µM and the IC50 amounted to 2.63 µM.
`CC1=C(C(=O)Nc2ccccc2C)C(c2ccc(N(C)C)cc2)C(C(=O)Nc2ccccc2C)=C(C)N1`: the EC50 was above 14.5 µM and the IC50 is above 14.5 µM.
Turning to `CC1=CC=C2c3ccccc3C=CN2C(=O)C1`, the EC50 is above 200 µM and the 50% inhibitory concentration (IC50) was 89.1 µM.
`CCOC(=O)C1C(=O)CC(O)(c2ccccc2)C(C(=O)OCC)C1c1ccc(N(C)C)cc1` (configuration not stated): the EC50 was above 200 µM and the IC50 is 4.07 µM.
`CC(C)(C)C1CCC(C[Se]c2ccccc2)([N+](=O)[O-])CC1` (configuration not stated): the outcome was inactive.
Regarding `COc1ccc(CCCN2c3ccccc3Sc3ccccc32)cc1`, the EC50 was above 10.7 µM and the IC50 was above 10.7 µM.

Values taken from PubChem BioAssay AID179 (DTP/NCI, 2004).
